Assay results: patent US4459296A, “Piperazines and homopiperazines, N-substituted by an aromatic heterocyclic group, and their use in therapeutics” (Delalande S.A., priority 1982, dated 1984)
Where two headings read alike, the source gives them in different places.

Columns and labels:
[1] = Acute toxicity assessed intravenously in mice (method of Miller and Tainter); details: mouse, in vivo; for LD50: read-out: Acute toxicity LD 50
[2] = system: S.H.R. rats (genetically hypertensive); test: Antihypertensive activity by oral administration to S.H.R. rats (genetically hypertensive); type: in vivo
Protocol: The arterial blood pressure was recorded on an APELAB-BP recorder 8002-and an electromechanical counter provided a direct reading of the heartbeat rate. The measurements were taken at 0 hour, 2 hours, 4 hours, 6 hours and 24 hours after administration of the compounds tested.
To illustrate the invention, the results obtained with some of the compounds of the invention are shown in Table II below in which the symbols AHY, ΔPA and ΔFC have the following meanings:
AHY=% of rats whose arterial blood pressure drops by a value greater than or equal to 20% of the initial value or is brought down to a value less than 150 mmHg,
ΔPA=% variation of the arterial blood pressure in all the animals tested with respect to the initial blood pressure,
ΔFC=% variation of the heart-beat rate of all the animals tested with respect to the initial rate.

[3] = iv, 200 mg/kg, i.v., read-out: Acute toxicity (mice), % at 200 mg/kg i.v. (printed "at 200 (0%)")
[4] = po, 1000 mg/kg, p.o., read-out: Acute toxicity (mice), % at 1000 (p.o.)
[5] = dose 50, 4 hours after administration
[6] = dose 50, 6 hours after administration
[7] = dose 50, 24 hours after administration

Compound: c1cc(N2CCNCC2)c2nn[nH]c2c1 [compound 39]
- LD50 ([1]; iv): 96 mg/kg

Compound: CC(C)C(=O)N1CCN(c2cccc3[nH]cnc23)CC1 [Code No. 3]
- mortality [1, 3]: 0%

Compound: CSc1nnc(C(=O)N2CCN(c3cccc4[nH]cnc34)CC2)o1 [compound 12]
- mortality [1, 4]: 0%

Compound: c1cc(N2CCNCC2)c2[nH]ccc2c1 [compound 42]
- LD50 ([1]; iv): 70 mg/kg

Compound: (piperazino-4 (7) benzotriazole, dihydrochloride [Code No. 39]
- AHY (% of rats whose arterial blood pressure drops by ≥20% of initial value or to <150 mmHg) [2, 5]: 33%
- ΔPA (% variation of the arterial blood pressure vs initial) [2, 5]: -15%
- AHY (% of rats whose arterial blood pressure drops by ≥20% of initial value or to <150 mmHg) [2, 6]: 67%
- ΔFC (% variation of the heart-beat rate vs initial) [2, 6]: +3%
- ΔPA (% variation of the arterial blood pressure vs initial) [2, 6]: -21%
- ΔFC (% variation of the heart-beat rate vs initial) [2, 7]: 0%

Compound: CCOC(=O)C1CCN(c2cccc3[nH]cnc23)CC1 [compound 30]
- LD50 ([1]; iv): 185 mg/kg

Compound: C=C(C)COC(=O)N1CCN(c2cccc3[nH]cnc23)CC1 [Code No. 17]
- mortality [1, 3]: 0%

Compound: c1cc(N2CCNCC2)c2cc[nH]c2c1 [compound 41]
- LD50 ([1]; iv): 35 mg/kg

Compound: (benzyloxycarbonyl-4 piperazino-1)-4 indole [Code No. 40]
- AHY (% of rats whose arterial blood pressure drops by ≥20% of initial value or to <150 mmHg) [2, 5]: 86%
- ΔFC (% variation of the heart-beat rate vs initial) [2, 5]: -11%
- ΔPA (% variation of the arterial blood pressure vs initial) [2, 5]: -23%
- AHY (% of rats whose arterial blood pressure drops by ≥20% of initial value or to <150 mmHg) [2, 6]: 86%
- ΔFC (% variation of the heart-beat rate vs initial) [2, 6]: -8%
- ΔPA (% variation of the arterial blood pressure vs initial) [2, 6]: -23%
- AHY (% of rats whose arterial blood pressure drops by ≥20% of initial value or to <150 mmHg) [2, 7]: 0%
- ΔFC (% variation of the heart-beat rate vs initial) [2, 7]: -9%
- ΔPA (% variation of the arterial blood pressure vs initial) [2, 7]: -2%

Compound: O=C(c1cccs1)N1CCN(c2cccc3[nH]cnc23)CC1 [Code No. 7]
- mortality [1, 3]: 0%

Compound: CCOC(=O)N1CCN(c2cccc3[nH]c(C)nc23)CC1 [compound 26]
- LD50 ([1]; iv): 200 mg/kg

Compound: (carbethoxy-4 piperazino-1)-4(7) benzimidazole, maleate [Code No. 13]
- AHY (% of rats whose arterial blood pressure drops by ≥20% of initial value or to <150 mmHg) [2, 6]: 71%
- ΔFC (% variation of the heart-beat rate vs initial) [2, 6]: 0%
- ΔPA (% variation of the arterial blood pressure vs initial) [2, 6]: -19%
- AHY (% of rats whose arterial blood pressure drops by ≥20% of initial value or to <150 mmHg) [2, 7]: 28%
- ΔFC (% variation of the heart-beat rate vs initial) [2, 7]: -7%
- ΔPA (% variation of the arterial blood pressure vs initial) [2, 7]: -9%

Compound: (carbethoxy-4 piperazino-1)-6 purine [Code No. 25]
- AHY (% of rats whose arterial blood pressure drops by ≥20% of initial value or to <150 mmHg) [2, 5]: 14%
- ΔFC (% variation of the heart-beat rate vs initial) [2, 5]: -5%
- ΔPA (% variation of the arterial blood pressure vs initial) [2, 5]: -8%
- AHY (% of rats whose arterial blood pressure drops by ≥20% of initial value or to <150 mmHg) [2, 6]: 57%
- ΔFC (% variation of the heart-beat rate vs initial) [2, 6]: +1%
- ΔPA (% variation of the arterial blood pressure vs initial) [2, 6]: -14%
- AHY (% of rats whose arterial blood pressure drops by ≥20% of initial value or to <150 mmHg) [2, 7]: 43%
- ΔFC (% variation of the heart-beat rate vs initial) [2, 7]: -4%
- ΔPA (% variation of the arterial blood pressure vs initial) [2, 7]: -9%

Compound: CCOC(=O)N1CCN(c2ncnc3nc[nH]c23)CC1 [compound 25]
- mortality [1, 3]: 0%

Compound: c1cc(N2CCNCC2)c2nc[nH]c2c1 [Code No. 1, (piperazino-1)-4(7) benzimidazole, tribromhydrate]
- LD50 ([1]; iv): 125 mg/kg

Compound: CCOC(=O)N1CCN(c2cccc3[nH]cnc23)CC1 [compound 13]
- LD50 ([1]; iv): 160 mg/kg

Compound: CC(C)COC(=O)N1CCN(c2cccc3[nH]cnc23)CC1 [compound 21]
- LD50 ([1]; iv): 195 mg/kg

Compound: c1ccc(SN2CCN(c3cccc4[nH]cnc34)CC2)cc1 [compound 24]
- mortality [1, 4]: 0%
